We go through 12 compounds from patent US20200223889A1, “Bicyclic Compounds Capable of Binding to Melanocortin 4 Receptor” (Novo Nordisk A/S, priority 2017, published 2020).

In test [1] the target is T1, human MC4R (Homo sapiens, UniProt P32245).
T1 construct: expressed in transfected cells
The experiment in a line: Functional cAMP assay (CisBio HTRF) in BHK cells expressing human MC4R. The class given is cell-based. To be noted: for MC1R/MC4R cAMP EC50 ratio: MC1R cAMP EC50 divided by MC4R cAMP EC50. In outline:
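Stably transfected BHK cells expressing human MC1R or MC4R; cAMP quantified by HTRF (cAMP-d2/cryptate) after 30 min compound stimulation at 25 °C in DMEM-based buffer with 1 mM IBMX. Compounds were prepared as 10-fold serial dilutions starting at 2 μM (working solution, 2× final). Readout after 1 h at 25 °C; non-linear regression.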
A general note: Changes in cAMP serve as a functional read-out for many G protein-coupled receptors.

Another test has as its target T2, human MC1R (Homo sapiens, UniProt Q01726).
T2 construct: expressed in transfected cells
The experiment in a line: Functional cAMP assay (CisBio HTRF) in BHK cells expressing human MC1R. The class given is cell-based. As for the experimental part:
In order to assess the potency of the compounds on human MC1R and human MC4R cAMP signalling was measured.
cAMP induction was measured by c-AMPdynamic2 assay, HTRF 62AM4PEC system from CisBio for the human MC1R and human MC4R according to the protocol provided by the vendor. BHK cells expressing the human MC1 or MC4 receptor were generated by stable transfection with expression vectors encoding the cDNA of either MC1R or MC4R.
In details; 25 μl compound—or standard solution were added in the respective wells. Compound was reconstituted in buffer (DMEM w/o phenol red, 10 mM
Hepes, lx Glutamine, 0.1% OV-albumin1, 1 mM IBMX) and serially diluted starting at 2 μM, 10-fold seven times. Dilutions were carried out in the same aforementioned buffer to the desired working concentration ranges (2× higher than the final concentration). 25 μl cell solution was then added and allowed to incubate for 30 min while lightly shaking, at 25° C. […] The provided components for the assay were reconstituted according to the CisBio assay protocol “3.1 supplied reagents and preparation procedure” in MilliQ purification system H2O and diluted 1:20 in lysis buffer. 25 μl cAMP-d2 and 25 μl Cryptate conjugate were added to all wells.
Plates were centrifuged at 1500 rpm for 30 sec and incubated for 1 h, lightly shaking, at 25° C. in a hotel stacker. The plates were read on Mithras LB 940 provided by Berthold Technologies The data were analysed by non-linear regression analysis of binding curves, using the Windows™ program GraphPad™ Prism (GraphPad Software, USA).
The latter is used when no full curve can be obtained in the concentration ranges indicated above.

Test [2] has as its target T1, human MC4R. The experiment in a line: 125NDP-α-MSH competitive binding to membranes of BHK cells expressing human MC4 receptor (filtration assay). The settings on record: human MC4R, BHK cell membranes, 125NDP-α-MSH radioligand; read-out: MC4R binding Ki. In outline: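 Displacement of ^125NDP-α-MSH (apx. […] final) was measured by filtration after 2 h at 25 °C, using diluted membranes of stably transfected BHK cells in pH 7.0 HEPES buffer. Compounds spanned 1 μM to 0.001 nM; binding curves were analysed by non-linear regression.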

The mark [3] stands for this setting: BHK cells expressing human MC4R, '>' = highest dose used with no response, read-out: MC4R cAMP EC50.
Setting [4] is: BHK cells expressing human MC1R, '>' = highest dose used with no response, read-out: MC1R cAMP EC50.

Like-named read-outs stand apart in the source and are kept apart here. Starred links: 1 amine or outer side, 2 acyl side, 3 side chain; linkers in the order of their positions; H or OH if unused. Positions of bridges follow the written chain, without caps; N, C: chain ends. Non-standard residues stand in square brackets, D forms with d. Residues, ends and D or L forms follow the SMILES beside them. Lys(CH2CO2H)2 = N[C@@H](CCCCN(CC(=O)O)CC(=O)O)C(=O)O; Phe(3,4-(OMe)2) = COc1ccc(C[C@H](N)C(=O)O)cc1OC; Hyp = O=C(O)[C@@H]1C[C@@H](O)CN1; Thz = O=C(O)[C@@H]1CSCN1; CH2 = C([*:1])[*:2] Some results are limits rather than exact numbers.

T1 sequence (P32245 whole entry): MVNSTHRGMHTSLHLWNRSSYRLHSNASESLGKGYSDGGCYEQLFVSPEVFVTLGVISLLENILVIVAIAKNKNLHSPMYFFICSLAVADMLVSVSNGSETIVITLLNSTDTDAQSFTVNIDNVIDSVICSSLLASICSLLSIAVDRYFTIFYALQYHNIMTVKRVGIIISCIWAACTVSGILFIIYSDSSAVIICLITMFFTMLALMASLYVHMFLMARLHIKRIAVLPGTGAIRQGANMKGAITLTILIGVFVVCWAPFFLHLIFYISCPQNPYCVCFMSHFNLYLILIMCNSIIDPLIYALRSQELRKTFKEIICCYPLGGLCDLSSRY
T2 sequence (Q01726 whole entry): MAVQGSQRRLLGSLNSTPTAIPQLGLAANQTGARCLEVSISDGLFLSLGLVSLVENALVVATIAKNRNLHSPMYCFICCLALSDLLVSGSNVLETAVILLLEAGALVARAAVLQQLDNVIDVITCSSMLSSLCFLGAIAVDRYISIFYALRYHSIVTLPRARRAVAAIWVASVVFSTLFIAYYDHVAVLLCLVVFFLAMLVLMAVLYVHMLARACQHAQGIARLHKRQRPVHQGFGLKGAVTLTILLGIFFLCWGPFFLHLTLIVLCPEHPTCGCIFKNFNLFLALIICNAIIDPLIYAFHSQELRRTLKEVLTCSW

As usually defined, the EC50 is the concentration giving half of the maximal effect. As for `O=C1N[C@H]2CSSC[C@H](NC(=O)[C@H](Cc3c[nH]c4ccccc34)NC(=O)[C@H](Cc3c[nH]cn3)NC(=O)[C@@H](Cc3ccccc3)NC(=O)[C@H](Cc3c[nH]cn3)NC(=O)[C@@H]3CSCN3C2=O)C(=O)N2CSC[C@H]2C(=O)N[C@@H](Cc2c[nH]cn2)C(=O)N[C@H](Cc2ccccc2)C(=O)N[C@@H](Cc2c[nH]cn2)C(=O)N[C@H]1Cc1c[nH]c2ccccc12` [Chem. 91, c[c[Cys-THAZ-His-D-Phe-His-Trp- Cys]-THAZ-His-D-Phe-His-Trp]] (cyclo(C[Thz]H[dF]HWC[Thz]H[dF]HW); disulfide 1-7), the “MC1R/MC4R cAMP EC50 ratio” value on human MC4R [1] is more than 14. In addition, on human MC1R, the EC50 was more than 10 nM.
In the case of `N=C(N)NCCC[C@@H]1NC(=O)[C@@H](Cc2ccccc2)NC(=O)[C@@H]2C[C@@H](O)CN2C(=O)[C@@H]2CSSC[C@H](NC(=O)[C@H](Cc3c[nH]c4ccccc34)NC1=O)C(=O)N1C[C@H](O)C[C@H]1C(=O)N[C@H](Cc1ccccc1)C(=O)N[C@@H](CCCNC(=N)N)C(=O)N[C@@H](Cc1c[nH]c3ccccc13)C(=O)N2` [Chem. 27, c[c[Cys-Hyp-D-Phe-Arg-Trp-Cys]- Hyp-D-Phe-Arg-Trp]] (cyclo(C[Hyp][dF]RWC[Hyp][dF]RW); disulfide 1-6), the half-maximal effective concentration (EC50) was determined as 0.24 nM at human MC4R [1] (setting [3]) and 50.9 nM on human MC1R (setting [4]). Also, the “MC1R/MC4R cAMP EC50 ratio” value on human MC4R [1] came to 212.
Consider `C[C@@H]1NC(=O)[C@@H]2CSCSC[C@H](NC(=O)[C@H](Cc3c[nH]c4ccccc34)NC(=O)[C@H](CCCNC(=N)N)NC(=O)[C@@H](Cc3ccccc3)NC(=O)[C@@H]3C[C@@H](O)CN3C1=O)C(=O)N[C@@H](C)C(=O)N1C[C@H](O)C[C@H]1C(=O)N[C@H](Cc1ccccc1)C(=O)N[C@@H](CCCNC(=N)N)C(=O)N[C@@H](Cc1c[nH]c3ccccc13)C(=O)N2` [Chem. 23, c[c[Cys-Ala-Hyp-D-Phe-Arg-Trp- Cys]-Ala-Hyp-D-Phe-Arg-Trp]] (cyclo(A[Hyp][dF]RWCA[Hyp][dF]RWC); linker 6-12 via CH2), for which the “MC1R/MC4R cAMP EC50 ratio” value at human MC4R [1] was more than 3. For the same compound, the EC50 at human MC1R (setting [4]) is more than 10 nM.
As to `C[C@@H]1NC(=O)[C@H](C)NC(=O)[C@@H]2CSSC[C@H](NC(=O)[C@H](Cc3c[nH]c4ccccc34)NC(=O)[C@H](C)NC(=O)[C@H](CCCCN(CC(=O)O)CC(=O)O)NC1=O)C(=O)N1CSC[C@H]1C(=O)N[C@@H](Cc1c[nH]cn1)C(=O)N[C@H](Cc1ccccc1)C(=O)N[C@@H](Cc1c[nH]cn1)C(=O)N[C@@H](Cc1c[nH]c3ccccc13)C(=O)N2` [Chem. 104, c[c[Cys-THAZ-His-D-Phe-His-Trp- Cys]-Ala-Ala-Lys(CH2COOH)2-Ala- Trp]] (cyclo(AA[Lys(CH2CO2H)2]AWC[Thz]H[dF]HWC); disulfide 6-12), at human MC4R [1], the EC50 turned out to be 0.6 nM and the “MC1R/MC4R cAMP EC50 ratio” value was 167. The EC50 at human MC1R is more than 100 nM.
Regarding `C[C@@H]1NC(=O)[C@H](CC(=O)O)NC(=O)[C@H](CCC(=O)O)NC(=O)[C@H](C)NC(=O)[C@@H]2CSSC[C@H](NC(=O)[C@H](Cc3c[nH]c4ccccc34)NC1=O)C(=O)N1CSC[C@H]1C(=O)N[C@@H](Cc1c[nH]cn1)C(=O)N[C@H](Cc1ccccc1)C(=O)N[C@@H](Cc1c[nH]cn1)C(=O)N[C@@H](Cc1c[nH]c3ccccc13)C(=O)N2` [Chem. 108, c[c[Cys-THAZ-His-D-Phe-His-Trp- Cys]-Ala-Glu-Asp-Ala-Trp]] (cyclo(AEDAWC[Thz]H[dF]HWC); disulfide 6-12), the “MC1R/MC4R cAMP EC50 ratio” value on human MC4R [1] is recorded as more than 40. The EC50 on human MC1R is more than 100 nM.
For the compound `C[C@@H]1NC(=O)[C@@H]2CSSC[C@H](NC(=O)[C@H](Cc3c[nH]c4ccccc34)NC(=O)[C@@H]3C[C@H](NC(=N)N)CN3C(=O)[C@@H](Cc3ccccc3)NC(=O)[C@H](Cc3c[nH]cn3)NC1=O)C(=O)N[C@@H](C)C(=O)N[C@@H](Cc1c[nH]cn1)C(=O)N[C@H](Cc1ccccc1)C(=O)N1C[C@@H](NC(=N)N)C[C@H]1C(=O)N[C@@H](Cc1c[nH]c3ccccc13)C(=O)N2` [Chem. 29, c[c[Cys-Ala-His-D-Phe-4cis-GuaPro- Trp-Cys]-Ala-His-D-Phe-4cis-GuaPro- Trp]], the EC50 at human MC1R (setting [4]) is more than 100 nM.
In the case of `N=C(N)NCCC[C@@H]1NC(=O)[C@@H](Cc2ccccc2)NC(=O)[C@H](Cc2c[nH]cn2)NC(=O)[C@@H]2CSSC[C@H](NC(=O)[C@H](Cc3c[nH]c4ccccc34)NC1=O)C(=O)N[C@@H](Cc1c[nH]cn1)C(=O)N[C@H](Cc1ccccc1)C(=O)N[C@@H](CCCNC(=N)N)C(=O)N[C@@H](Cc1c[nH]c3ccccc13)C(=O)N2` [Chem. 49, c[c[Cys-His-D-Phe-Arg-Trp-Cys]-His- D-Phe-Arg-Trp]] (cyclo(CH[dF]RWCH[dF]RW); disulfide 1-6), the “MC1R/MC4R cAMP EC50 ratio” value at human MC4R [1] is more than 4. Besides, the EC50 on human MC1R was more than 5.5 nM.
Take `COc1ccc(C[C@@H]2NC(=O)[C@H](CCCNC(=N)N)NC(=O)[C@@H](Cc3ccccc3)NC(=O)[C@H](Cc3c[nH]cn3)NC(=O)[C@H](C)NC(=O)[C@@H]3CSSC[C@H](NC2=O)C(=O)N[C@@H](C)C(=O)N[C@@H](CCCCN)C(=O)N[C@@H](CCCCN)C(=O)N[C@@H](CCCCN)C(=O)N[C@@H](Cc2c[nH]c4ccccc24)C(=O)N3)cc1OC` [Chem. 67, c[c[Cys-Ala-His-D-Phe-Arg-3,4- DiMeo-Phe-Cys]-Ala-Lys-Lys-Lys- Trp]] (cyclo(AH[dF]R[Phe(3,4-(OMe)2)]CAKKKWC); disulfide 6-12): the “MC1R/MC4R cAMP EC50 ratio” value on human MC4R [1] is on record as more than 18. Besides, the EC50 at human MC1R (setting [4]) is more than 55 nM.
`C[C@@H]1NC(=O)[C@@H]2CSSC[C@H](NC(=O)[C@H](Cc3c[nH]c4ccccc34)NC(=O)[C@H](CCCNC(N)=O)NC(=O)[C@@H](Cc3ccccc3)NC(=O)[C@H](Cc3c[nH]cn3)NC1=O)C(=O)N[C@@H](C)C(=O)N[C@@H](Cc1c[nH]cn1)C(=O)N[C@H](Cc1ccccc1)C(=O)N[C@@H](CCCNC(N)=O)C(=O)N[C@@H](Cc1c[nH]c3ccccc13)C(=O)N2` [Chem. 19, c[c[Cys-Ala-His-D-Phe-Cit-Trp-Cys]- Ala-His-D-Phe-Cit-Trp]]: the EC50 was 0.13 nM at human MC4R [1] (setting [3]) and more than 1 nM at human MC1R (setting [4]). At human MC4R [1], the “MC1R/MC4R cAMP EC50 ratio” value was more than 8.
Regarding `O=C(O)CC[C@@H]1NC(=O)[C@@H]2CSSC[C@H](NC(=O)[C@H](Cc3c[nH]c4ccccc34)NC(=O)[C@H](Cc3c[nH]cn3)NC(=O)[C@@H](Cc3ccccc3)NC(=O)[C@H](Cc3c[nH]cn3)NC1=O)C(=O)N[C@@H](CCC(=O)O)C(=O)N[C@@H](Cc1c[nH]cn1)C(=O)N[C@H](Cc1ccccc1)C(=O)N[C@@H](Cc1c[nH]cn1)C(=O)N[C@@H](Cc1c[nH]c3ccccc13)C(=O)N2` [Chem. 53, c[c[Cys-Glu-His-D-Phe-His-Trp-Cys]- Glu-His-D-Phe-His-Trp]] (cyclo(CEH[dF]HWCEH[dF]HW); disulfide 1-7), on human MC4R [1], the “MC1R/MC4R cAMP EC50 ratio” value was more than 1. The EC50 at human MC1R (setting [4]) was more than 10 nM.
Turning to `C[C@@H]1NC(=O)[C@@H]2CSSC[C@H](NC(=O)[C@H](Cc3c[nH]c4ccccc34)NC(=O)[C@@H]3C[C@@H](NC(=N)N)CN3C(=O)[C@@H](Cc3ccccc3)NC(=O)[C@H](Cc3c[nH]cn3)NC1=O)C(=O)N[C@@H](C)C(=O)N[C@@H](Cc1c[nH]cn1)C(=O)N[C@H](Cc1ccccc1)C(=O)N1C[C@H](NC(=N)N)C[C@H]1C(=O)N[C@@H](Cc1c[nH]c3ccccc13)C(=O)N2` [Chem. 28, c[c[Cys-Ala-His-D-Phe-4trans- GuaPro-Trp-Cys]-Ala-His-D-Phe- 4trans-GuaPro-Trp]], the EC50 on human MC1R (setting [4]) was more than 100 nM.
A word on the Ki: it is the equilibrium dissociation constant of an inhibitor or competing ligand from its target. For `CC(=O)NCCCC[C@@H]1NC(=O)[C@@H](Cc2ccccc2)NC(=O)[C@H](Cc2c[nH]cn2)NC(=O)[C@H](C)NC(=O)[C@@H]2CSSC[C@H](NC(=O)[C@H](Cc3c[nH]c4ccccc34)NC1=O)C(=O)N[C@@H](C)C(=O)N[C@@H](CCCCN)C(=O)N[C@H](CCCCN)C(=O)N[C@@H](CCCCN)C(=O)N[C@@H](Cc1c[nH]c3ccccc13)C(=O)N2` [Chem. 58, c[c[Cys-Ala-His-D-Phe-AcLys-Trp- Cys]-Ala-Lys-D-Lys-Lys-Trp]] (cyclo(AH[dF]K(Ac)WCAK[dK]KWC); disulfide 6-12), the Ki at human MC4R [2] was determined as 0.09 nM. Besides, the EC50 at human MC4R [1] (setting [3]) was found to be 0.11 nM. Moreover, the “MC1R/MC4R cAMP EC50 ratio” value on human MC4R [1] was 36.
